Measurements reported in patent publication US20220146526A1, “METHOD FOR EVALUATING SAMPLE, ANALYSIS METHOD, METHOD FOR DETECTING DEGRADED SAMPLE, MARKER FOR DETECTING DEGRADED BLOOD PLASMA SAMPLE, AND MARKER FOR DETECTING DEGRADED SERUM SAMPLE” (SHIMADZU CORPORATION, priority 2019, published 2022).
Several values for one entry are separate records, joined by “and”; a condition that tells them apart may be missing. Identical values can stand only once.

Experiments:
Format in all cases: physicochemical, human
[1] = GC/MS of serum sample: number of times of freezing and thawing (Table I); design: key to Rate of increase or decrease / Rate of increase or decrease (first value, increase): detection intensity relative to 2 freeze-thaw cycles = 1; conditions: GC/MS; for Rate of increase or decrease: detection intensity relative to 1 at 2 times
Procedure: (§1) After standing, the blood sample was subjected to centrifugation under a condition of room temperature, 3500 rpm, and 5 minutes. […] After centrifugation, the blood-collecting vessel was left to stand at room temperature, and the serum was isolated during this time. Here, in order to investigate how the detection intensity of molecules contained in the sample was affected in cases where the time during which the blood-collecting vessel was left at room temperature was set to 1 hour and 6 hours as compared to that in a case where the time was set to 30 minutes, preparations were performed under the respective conditions of 30 minutes, 1 hour, and 6 hours. The obtained serum sample was frozen and stored. Here, in order to investigate how the detection intensity of molecules contained in the sample was affected in cases where freezing and thawing was performed 4 times, 6 times, and 10 times after freezing as compared to that in a case where freezing and thawing was performed 2 times after freezing, freezing and thawing was performed under the respective conditions of 2, 4, 6, and 10 times.
(§2) Frozen blood plasma samples and serum samples were subjected to GC/MS or LC/MS. In GC/MS, the blood plasma samples and serum samples were subjected to methoxymation and trimethylsilylation and then introduced to GC-MS.
(§3) GC/MS was conducted using GCMS·TQ8040 (Shimadzu Corporation) that was a GC·MS equipped with AOC·20i (Shimadzu Corporation) as an autosampler.
(§4) Column: BPX5 (inner diameter of 0.25 mm, length of 30 m, and film thickness of 0.25 μm) (SGE)
(§5) Column temperature: maintained at 60° C. for 2 minutes, then raised at 15° C./min, and maintained at 330° C. for 3 minutes.
(§6) Inlet temperature: 250° C.
(§7) Carrier gas control mode: constant linear velocity of 39.0 cm/sec
(§8) Sample introduction method: split (split ratio of 30:1) Injection volume: 1 μL
(§9) Ionization method: electron ionization
(§10) Ionization current: 60 μA
(§11) Interface temperature: 280° C.
(§12) Ion source temperature: 200° C.
(§13) Mode: multiple reaction monitoring (MRM)
The rate of increase or decrease in Table I is the value of detection intensity relative to 1 that is the detection intensity in a case where the number of times of freezing and thawing is set to 2 times.

[2] = GC/MS of serum sample: time from centrifugation to isolation (Table H); design: key to Rate of increase or decrease / Rate of increase or decrease (first value, increase): detection intensity relative to 1 at 30 min centrifugation-to-isolation; conditions: for Rate of increase or decrease: detection intensity relative to 1 at 30 minutes; for Increase or decrease: detection intensity
Procedure: as §1, §2, §3, §4, §5, §6, §7, §8, §9, §10, §11, §12, §13
The rate of increase or decrease in Table H is the value of detection intensity relative to 1 that is the detection intensity in a case where the time from centrifugation to isolation is set to 30 minutes.

[3] = LC/MS of blood plasma sample: time from blood collection to centrifugation (Table D)
Procedure: (§14) At room temperature, 5 mL of blood from a healthy subject was taken into a blood-collecting vessel containing EDTA, and the blood-collecting vessel was inverted for mixing, then cooled, and allowed to stand at 4° C. Here, in order to investigate how the detection intensity of molecules contained in the sample was affected in a case where the time to cooling was set to 5 minutes or more as compared to that in a case where the time to cooling was set to 1 minute or less, preparations were performed under both the former condition and the latter condition. After standing, the blood sample was subjected to centrifugation under a condition of 4° C., 3000 rpm, and 15 minutes. […] After centrifugation, the blood-collecting vessel was left to stand at room temperature for 30 minutes, and the blood plasma was isolated during this 30 minutes. The obtained blood plasma sample was frozen and stored. Here, in order to investigate how the detection intensity of molecules contained in the sample was affected in cases where freezing and thawing was performed 4 times, 6 times, and 10 times after freezing as compared to that in a case where freezing and thawing was performed 2 times after freezing, freezing and thawing was performed under the respective conditions of 2, 4, 6, and 10 times.
as §2
(§15) Analysis column: Discovery HS F5-3 (inner diameter of 2.1 mm, length of 150 mm, film thickness of 3 μm) (Sigma-Aldrich)
(§16) Column temperature: 40° C.
(§17) (A) 0.1% formic acid (dissolved in water)
(§18) (B) 0.1% formic acid (dissolved in acetonitrile)
(§19) Flow velocity: 0.25 mL/min
(§20) Ionization method: electrospray
(§21) Temperature: • Desolvation Line (DL) temperature: 250° C. • Heat block temperature: 400° C. • Interface temperature: 300° C.
(§22) Gas flow rate: • Nebulizer gas flow rate: 3.0 L/min • Drying gas flow rate: 10.0 L/min • Heating gas flow rate: 10.0 L/min
as §13
The rate of increase or decrease in Table D is the value of detection intensity relative to 1 that is the detection intensity in a case where the time from blood collection to centrifugation is set to 15 minutes.

[4] = LC/MS of serum sample: number of times of freezing and thawing (Table M); design: key to Rate of increase or decrease: detection intensity relative to 1 at 2 freeze-thaw cycles; conditions: for Rate of increase or decrease: 6 times of freezing and thawing, relative to 1 at 2 times, different from individual to individual
Procedure: as §1, §2, §15, §16, §17, §18, §19, §20, §21, §22, §13
The rate of increase or decrease in Table M is the value of detection intensity relative to 1 that is the detection intensity in a case where the number of times of freezing and thawing is set to 2 times.

[5] = GC/MS of blood plasma sample: time from blood collection to centrifugation (Table A); conditions: blood collection to centrifugation; for Rate of increase or decrease: detection intensity relative to 1 at 15 minutes; for Increase or decrease: detection intensity
Procedure: as §14, §2, §3, §4, §5, §6, §7, §8, §9, §10, §11, §12, §13
The rate of increase or decrease in Table A is the value of detection intensity relative to 1 that is the detection intensity in a case where the time from blood collection to centrifugation is set to 15 minutes.

[6] = GC/MS of serum sample: time from blood collection to centrifugation (Table G); conditions: blood collection to centrifugation; for Rate of increase or decrease: detection intensity relative to 1 at 15 minutes; for Increase or decrease: detection intensity
Procedure: as §1, §2, §3, §4, §5, §6, §7, §8, §9, §10, §11, §12, §13
The rate of increase or decrease in Table G is the value of detection intensity relative to 1 that is the detection intensity in a case where the time from blood collection to centrifugation is set to 15 minutes.

[7] = GC/MS of blood plasma sample: number of times of freezing and thawing (Table C); conditions: for Rate of increase or decrease: detection intensity relative to 1 at 2 times, freezing and thawing 4 times; for Increase or decrease: detection intensity, freezing and thawing 4 times vs 2 times
Procedure: as §14, §2, §3, §4, §5, §6, §7, §8, §9, §10, §11, §12, §13
The rate of increase or decrease in Table C is the value of detection intensity relative to 1 that is the detection intensity in a case where the number of times of freezing and thawing is set to 2 times.

[8] = serum, freezing and thawing 10 times
[9] = detection intensity, serum, freezing and thawing 10 times vs 2 times

| Compound | Rate of increase or decrease [1, 8] | Increase or decrease [1, 9] | Rate of increase or decrease ([5]; after 12 hours) | Increase or decrease ([5]; after 12 hours vs 15 minutes) | Rate of increase or decrease ([2]; after 1 hour) | Increase or decrease ([2]; after 1 hour vs 30 minutes) | Rate of increase or decrease [7] | Increase or decrease [7] | also measured |
| --- | --- | --- | --- | --- | --- | --- | --- | --- | --- |
| CCC(N)C(=O)O (centres unmarked) [2-Aminobutyric acid] | 2.63 | Increase | – | – | – | – | – | – | Rate of increase or decrease ([2]; after 6 hours): 1.60; Increase or decrease ([2]; after 6 hours vs 30 minutes): Increase; Increase or decrease ([3]; detection intensity, blood collection to centrifugation, after 12 hours vs 15 minutes): Different from individual; Rate of increase or decrease (second value, decrease) ([3]; different from individual to individual, individuals with decrease, relative to 1 at 15 minutes, collection to centrifugation, after 12 hours): 0.65; Rate of increase or decrease (first value, increase) ([3]; different from individual to individual, individuals with increase, relative to 1 at 15 minutes, collection to centrifugation, after 12 hours): 1.53; Rate of increase or decrease ([4]; first value (increase)): 1.31; Rate of increase or decrease ([4]; second value (decrease)): 0.61; Number of times when compound is affected ([4]; serum sample, LC/MS, detection intensity changed by 30% or more vs 2 times of freezing and thawing): 6 times; Increase or decrease ([4]; serum sample, LC/MS, detection intensity vs 2 times of freezing and thawing): Different from individual |
| CC(CN)C(=O)O (centres unmarked) [3-Aminoisobutyric acid] | 1.47 | Increase | 1.44 | Increase | – | – | – | – | – |
| O=C(O)C(O)Cc1ccc(O)cc1 (centres unmarked) [4-Hydroxyphenyllactic acid] | – | – | 1.33 | Increase | 0.64 | Decrease | – | – | – |
| O=C(O)C=C(CC(=O)O)C(=O)O [Aconitic acid] | – | – | – | – | 0.04 | Decrease | – | – | Rate of increase or decrease ([6]; after 4 hours): 1.52; Increase or decrease ([6]; after 4 hours vs 15 minutes): Increase; Rate of increase or decrease ([5]; after 4 hours): 0.41; Increase or decrease ([5]; after 4 hours vs 15 minutes): Decrease |
| CCCCC/C=C\C/C=C\C/C=C\C/C=C\CCCC(=O)O [Arachidonic acid] | 1.52 | Increase | – | – | – | – | – | – | Rate of increase or decrease ([5]; after 4 hours): 1.56; Increase or decrease ([5]; after 4 hours vs 15 minutes): Increase |
| OB(O)O [Boric acid] | – | – | – | – | 2.06 | Increase | 1.56 | Increase | Rate of increase or decrease ([1]; serum, freezing and thawing 4 times): 0.63; Increase or decrease ([1]; detection intensity, serum, freezing and thawing 4 times vs 2 times): Decrease |

Second part, led by results:

| Rate of increase or decrease [1, 8] | Increase or decrease [1, 9] | Rate of increase or decrease ([5]; after 12 hours) | Increase or decrease ([5]; after 12 hours vs 15 minutes) | Rate of increase or decrease ([2]; after 1 hour) | Increase or decrease ([2]; after 1 hour vs 30 minutes) | Rate of increase or decrease [7] | Increase or decrease [7] | Compound | also measured |
| --- | --- | --- | --- | --- | --- | --- | --- | --- | --- |
| – | – | – | – | – | – | 1.58 | Increase | CCCCCC(=O)O [Cabroic acid] | Number of times when compound is affected ([1]; serum sample, detection intensity changed by 30% or more vs 2 times of freezing and thawing): 10 times; Increase or decrease ([1]; serum sample, detection intensity vs 2 times of freezing and thawing): Increase |
| – | – | 1.38 | Increase | – | – | – | – | CC(C)CCC[C@@H](C)[C@H]1CC[C@H]2[C@@H]3CC=C4C[C@@H](O)CC[C@]4(C)[C@H]3CC[C@]12C [Cholesterol] | – |
| – | – | – | – | 1.87 | Increase | 1.44 | Increase | O=C[C@H](O)[C@@H](O)[C@@H](O)[C@H](O)C(=O)O [Galacturonic acid] | Rate of increase or decrease ([6]; after 8 hours): 0.60 and 0.64; Increase or decrease ([6]; after 8 hours vs 15 minutes): Decrease |
